Results published in publication PMC11040670, “Mechanistic and Kinetic Insights into Cellular Uptake of Biomimetic Dinitrosyl Iron Complexes and Intracellular Delivery of NO for Activation of Cytoprotective HO-1” (JACS Au, 2024).
Marks after values point to notes of the source that are not given here.

What was measured:
HCEC = test: Whole-cell EPR: cellular uptake and intracellular formation/decomposition of mononuclear DNIC in HCEC; format: cell-based, human; conditions: for tmax for cellular uptake and intracellular transformation (whole-cell EPR): normoxia, 75 μM DNIC–COOH or 1 μM DNIC–COOMe
Protocol: Cellular uptake of DNIC–COOH and intracellular formation/decomposition of mononuclear DNICs in MSC/N2a/HCEC cells were investigated using EPR spectroscopy. Briefly, cells were seeded into two (or one) 100 mm dish(es) at a density of 2 × 10^6 cells/dish and incubated at 37 °C overnight. On the next day, cells were treated with 100 μM of DNIC–COOH (or 100 μM of DNIC–COOH to N2a and 75 μM of DNIC–COOH to HCEC) and incubated for 0, 0.5, 1, 2, 3, 4, 8, and 24 h, respectively. After removal of the supernatant solution, cells were washed with DPBS before addition of 1 mL of trypsin (0.05%)/EDTA (0.53 mM) and incubation for 5 min at 37 °C. After the obtained cell suspension solutions from two 100 mm dishes were combined and centrifuged at 100g for 5 min, the supernatant was removed before addition of 100 μL of αMEM to DNIC-treated MSC (or MEM to DNIC-treated N2a and HSFM to DNIC-treated HCEC). This solution was then transferred into EPR quartz tube and frozen in N2(l) before the EPR measurements. For each measured EPR spectrum, double integration was executed to obtain the integrated EPR intensity under each condition. Moreover, time-dependent decay of integrated EPR signal intensity after treatment of DNIC–COOH was fit to pseudo-first-order kinetics in order to determine the intracellular half-life for EPR-active mononuclear DNIC. Three independent experiments were executed to measure the average half-life for intracellular decomposition of EPR-active mononuclear DNIC after treatment with DNIC–COOH at 37 °C. On the other hand, at the time point with maximum integrated EPR signal intensity, spin quantitation of intracellular EPR-active DNICs was performed using mononuclear DNIC [PPN][(NO)2Fe(S5)] as a standard according to the methodology used in the previous work.[50] Cellular uptake of DNIC–COOMe (2.5 μM to MSC, 10 μM to N2a, or 1 μM to HCEC) and intracellular formation/decomposition of EPR-active mononuclear DNICs were investigated using EPR spectroscopy in a similar manner.
Studies of cellular uptake mechanisms were investigated using EPR spectroscopy in combination with pretreatments of alternative inhibitors. After the MSC cells were seeded into two (or one) 100 mm dish(es) at a density of 2 × 10^6 cells/dish and incubated at 37 °C overnight, sequential treatments of 50 μM of NEM for 0.5 h and 100 μM of DNIC–COOH for 2 h were performed before the treated MSC cells were collected for EPR measurement following the procedure described above. […]

[1] = NO-release reactivity of DNICs (total nitrate/nitrite assay); format: physicochemical; conditions: dinuclear DNIC 25 μM, phosphate buffer (pH 7.4), no additive, normoxia, 37 °C
Protocol: The NO-release reactivity of DNICs in 50 mM potassium phosphate buffer (pH 7.4) under normoxia condition at 37 °C was investigated using Nitrate/Nitrite Colorimetric Assay Kit (Item No. 780001, Cayman). After addition of 10 μL of 100 mM stock solution of DNIC–COOH (or DNIC–COOMe) in DMSO to 990 μL of 50 mM potassium phosphate buffer (pH 7.4), 25 μM of DNIC–COOH (or DNIC–COOMe) was prepared by the addition of 0.125 mL of this 1 mM solution of DNIC–COOH (or DNIC–COOMe) to 4.875 mL of 50 mM potassium phosphate buffer (pH 7.4). This solution was incubated at 37 °C under normoxia condition for 0, 1, 2, 4, 8, 24, 48, and 72 h, respectively. Then, 40 μL of the solution was collected to assess the release of NO using a Nitrate/Nitrite Colorimetric Assay Kit (Item No. 780001, Cayman). After each 40 μL aliquot of the aqueous solution was mixed with 40 μL of kit assay buffer, 10 μL of Enzyme Cofactor Mixture (Item No. 780012) and 10 μL of nitrate reductase mixture (Item No. 780010) were added before this mixture solution was incubated at room temperature for 1 h. […] The absorbance at 540 nm was then recorded using a microplate reader (SpectraMax iD3, Molecular Devices, San Jose, CA) with a reference wavelength of 800 nm. […]

Structure (SMILES)	tmax for cellular uptake and intracellular transformation (whole-cell EPR) (HCEC; HCEC) [h]	relative whole-cell EPR signal intensity at gav = 2.03 (control = 100%) (HCEC; MβCD-treated HCEC) [%]	relative whole-cell EPR signal intensity at gav = 2.03 (control = 100%) (HCEC; genistein-treated HCEC) [%]	t1/2 for release of NO from DNICs [1]	relative whole-cell EPR signal intensity at gav = 2.03 (control = 100%) (HCEC; HCEC, native FBS replaced with 2% NEM-treated FBS) [%]	relative whole-cell EPR signal intensity at gav = 2.03 (control = 100%) (HCEC; HCEC, pretreatment of NEM 0.5 h, then DNIC–COOMe 0.5 h, reduction) [%]
O=[N][Fe]1([N]=O)[SH](CCC(=O)O)[Fe]([N]=O)([N]=O)[SH]1CCC(=O)O (centres unmarked) [DNIC–COOH, [(NO)2Fe(μ-SCH2CH2COOH)2Fe(NO)2]]	8	77.5 ± 11.1	72.1 ± 5.9	10.7 ± 1.4 ^e h		
COC(=O)CC[SH]1[Fe]([N]=O)([N]=O)[SH](CCC(=O)OC)[Fe]1([N]=O)[N]=O (centres unmarked) [DNIC–COOMe, [(NO)2Fe(μ-SCH2CH2COOCH3)2Fe(NO)2]]	0.5			9.1 ± 0.6 ^e h	99.9 ± 15.3	35.8 ± 2.3
